Assay results reported in patent publication US6737256B2, “Overcoming DAPA aminotransferase bottlenecks in biotin vitamers biosynthesis” (Roche Vitamins Inc., priority 1997, dated 2004).
Where two headings read alike, the source gives them in different places.

What was measured:
[1] = target: T1, B. subtilis DAPA aminotransferase (Bacillus subtilis, UniProt P53555); type: biochemical; settings: for DAPA aminotransferase specfic activity: compound added to extract of BI611; for function as amino donor with the B. subtilis enzyme / stimulation of DAPA aminotransferase activity: result in words; for stimulation of DAPA aminotransferase activity: dialyzed BI611 extract
T1 construct: A cell free extract prepared from a B. subtilis strain deleted for the bio operon but containing multiple copies (4-6) of the B. subtilis bioA gene; made in house; host or cells: B. subtilis BI611 (Δbio:cat, bpr:[P26bioA]4-6), cell-free extract (dialyzed for A1, crude for A2)
T1 sequence (P53555 1-448): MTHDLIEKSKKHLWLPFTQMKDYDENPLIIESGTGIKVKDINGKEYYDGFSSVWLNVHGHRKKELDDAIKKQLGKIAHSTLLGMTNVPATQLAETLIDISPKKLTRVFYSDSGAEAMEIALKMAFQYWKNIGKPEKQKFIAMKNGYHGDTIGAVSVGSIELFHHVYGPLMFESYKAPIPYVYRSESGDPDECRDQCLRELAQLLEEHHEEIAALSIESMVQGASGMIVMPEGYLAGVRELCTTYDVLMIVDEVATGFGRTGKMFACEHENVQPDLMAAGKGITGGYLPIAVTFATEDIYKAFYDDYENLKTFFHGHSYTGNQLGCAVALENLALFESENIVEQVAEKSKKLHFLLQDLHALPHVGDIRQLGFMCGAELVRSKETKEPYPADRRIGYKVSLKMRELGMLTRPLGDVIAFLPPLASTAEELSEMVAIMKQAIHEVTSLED
Experimental: The assay for DAPA aminotransferase is described by Eisenberg and Stoner in 1971 (J. Bacteriol. 108:1135-1140). In this assay, the substrate KAPA is incubated with S-adenosylmethionine (SAM) in the presence of the cofactor pyridoxal 5′-phosphate and cell extract. We measured the amount of DAPA produced in a plate bioassay utilizing an E. coli bioA strain. Streptavidin (8 μg/ml) was added to the assay mix because extracts of many of the strains to be assayed contained significant amounts of biotin and dethiobiotin which fed the E. coli indicator strain used in the bioassay. Contamination by trace amounts of biotin and dethiobiotin was also removed from the KAPA preparation used as substrate by passing the material over an avidin-agarose column. The E. coli bioA109 strain (MEC1) was used to measure DAPA aminotransferase activity in the bioassay. […] Eisenberg's DAPA-sensitive strain was obtained from the E. coli Genetic Stock Center at Yale University.
To determine whether B. subtilis DAPA aminotransferase activity could be stimulated by addition of other amino donors to the reaction mix, various amino donors were screened for their ability to stimulate enzyme activity in vitro. A cell free extract prepared from a B. subtilis strain deleted for the bio operon but containing multiple copies (4-6) of the B. subtilis bioA gene transcribed from a phage SP01-26 promoter with the cassette integrated at the bpr locus, BI611 (Δbio:cat, bpr:[P26bioA]4-6), was dialyzed to remove any endogenous levels of the amino donor and the extract was assayed in the presence of each of the standard amino acids and several other amine compounds. […] In a subsequent experiment, various lysine derivatives and analogs were tested for stimulation of activity (Table 2). […] The structure of (S)-2-aminoethyl-L-cysteine is identical to L-lysine except that the γ carbon has been replaced by a sulfur atom.

[2] = target: T2, E. coli DAPA aminotransferase (Escherichia coli, UniProt P12995); settings: cited from earlier work; for Km: Stoner and Eisenberg 1975
[3] = target: T1, B. subtilis DAPA aminotransferase; experiment: Kinetic studies of B. subtilis DAPA aminotransferase (crude cell-free extract of BI611); type: biochemical; settings: for Km: crude cell-free extract of BI611
Experimental: (§1) The assay for DAPA aminotransferase is described by Eisenberg and Stoner in 1971 (J. Bacteriol. 108:1135-1140). In this assay, the substrate KAPA is incubated with S-adenosylmethionine (SAM) in the presence of the cofactor pyridoxal 5′-phosphate and cell extract. We measured the amount of DAPA produced in a plate bioassay utilizing an E. coli bioA strain. Streptavidin (8 μg/ml) was added to the assay mix because extracts of many of the strains to be assayed contained significant amounts of biotin and dethiobiotin which fed the E. coli indicator strain used in the bioassay. Contamination by trace amounts of biotin and dethiobiotin was also removed from the KAPA preparation used as substrate by passing the material over an avidin-agarose column. The E. coli bioA109 strain (MEC1) was used to measure DAPA aminotransferase activity in the bioassay. This E.coli bioA strain, developed for the assay by Eisenberg, was reported to be many times more sensitive to DAPA than any other bioA mutant. Eisenberg's DAPA-sensitive strain was obtained from the E. coli Genetic Stock Center at Yale University.
The kinetic properties of B. subtilis DAPA aminotransferase were investigated using a crude cell-free extract prepared from BI611 (Δbio:cat, bpr:[P26bioA]4-6). […] The conversion of substrate to product was approximately 10 to 40% in 20 minutes. […] The pH optimum for the transamination reaction was determined to be pH 8.6. […] The […] enzyme was subject to inhibition by KAPA at levels above 20 μM. […] The enzyme became saturated for lysine at concentrations between 20 and 40 mM.
The substrate inhibition of B. subtilis DAPA aminotransferase by KAPA provides evidence for a double displacement or ping-pong reaction mechanism, as has been shown for E.coli DAPA aminotransferase (Stoner et al., J. Biol. Chem. 250:4037-4043, 1975). KAPA concentration was varied at four different fixed lysine concentrations, and initial velocity data was collected and plotted in a double reciprocal form. […]

[4] = target: T3, S. marcescens DAPA aminotransferase (Serratia marcescens, UniProt P36568); experiment: DAPA aminotransferase assay of extracts of B. subtilis strains containing S. marcescens bioA; type: biochemical; settings: strains lacking native bioA, with S. marcescens bioA
T3 construct: made in house; host or cells: B. subtilis strain lacking the native bioA gene, carrying S. marcescens bioA; cell extract
Experimental: as §1
(§2) The enzyme reaction was approximately linear with time for at least 60 minutes. […] Enzyme activity was destroyed by boiling the extract, or freezing and thawing, although freezing the extract in the presence of 10% DMSO appeared to stabilize the enzyme. […]

[5] = target: T1, B. subtilis DAPA aminotransferase; experiment: DAPA aminotransferase assay of BI282 extract, dependence on SAM; type: biochemical
Experimental: as §1
A B. subtilis strain, BI282, engineered to overexpress B. subtilis BioA protein was assayed for DAPA aminotransferase activity: BI282 contains a P15 bio cassette amplified at the bio locus (described in Patent Application 0635572A2). […]

[6] = target: T2, E. coli DAPA aminotransferase; experiment: DAPA aminotransferase assay of extracts of B. subtilis strains containing E. coli bioA; type: biochemical; settings: strains lacking native bioA, with E. coli bioA
Experimental: as §1, §2

[7] = test system: B. subtilis strains, PY79, BI282, and BI603; experiment: Sensitivity of B. subtilis strains to lysine analogs on minimal medium; type: cell-based; settings: minimal medium with no additive, with threonine, or with DAP plus threonine
Experimental: Three out of the four classical cases of lysine deregulated mutants were isolated by selecting for lysine analog resistance. B. subtilis strains, PY79 (Youngman et al., Plasmid 12:1-9, 1984), BI282, and BI603 were tested for sensitivity to four lysine analogs, on minimal medium with no additive, with threonine, or with DAP plus threonine. The purpose of the additives was to focus the selection on the lysC gene, that encodes the lysine sensitive aspartokinase II. […] All three strains behaved similarly; all were sensitive to AEC in all three media.

T2 sequence (P12995 whole entry): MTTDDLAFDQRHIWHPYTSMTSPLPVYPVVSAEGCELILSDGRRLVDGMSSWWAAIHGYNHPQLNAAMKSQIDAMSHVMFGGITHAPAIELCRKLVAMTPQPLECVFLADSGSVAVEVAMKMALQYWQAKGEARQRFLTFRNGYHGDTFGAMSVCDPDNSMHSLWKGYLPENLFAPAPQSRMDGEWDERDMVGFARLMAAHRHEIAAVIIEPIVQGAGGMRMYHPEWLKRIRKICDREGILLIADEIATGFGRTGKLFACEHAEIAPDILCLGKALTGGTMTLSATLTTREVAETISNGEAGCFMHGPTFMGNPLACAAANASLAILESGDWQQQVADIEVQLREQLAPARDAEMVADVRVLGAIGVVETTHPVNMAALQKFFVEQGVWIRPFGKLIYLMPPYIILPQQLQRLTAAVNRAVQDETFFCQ
T3 sequence (P36568 whole entry): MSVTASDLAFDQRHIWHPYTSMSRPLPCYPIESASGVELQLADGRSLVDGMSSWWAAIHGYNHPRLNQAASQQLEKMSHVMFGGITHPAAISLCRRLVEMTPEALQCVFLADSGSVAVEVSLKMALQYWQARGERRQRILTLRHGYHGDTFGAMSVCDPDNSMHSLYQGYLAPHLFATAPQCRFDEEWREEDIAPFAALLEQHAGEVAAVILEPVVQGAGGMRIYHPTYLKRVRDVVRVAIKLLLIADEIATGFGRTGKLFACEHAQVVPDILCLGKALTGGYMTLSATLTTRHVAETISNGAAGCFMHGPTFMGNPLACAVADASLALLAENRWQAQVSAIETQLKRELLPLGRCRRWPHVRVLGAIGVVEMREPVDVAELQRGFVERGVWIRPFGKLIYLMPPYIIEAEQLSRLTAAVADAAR

In the case of `CC(=O)N[C@@H](CCCCN)C(=O)O` [Nα-acetyl-L-lysine], the “DAPA aminotransferase specfic activity” value [1] is reported as 0 nmol/min/mg.

For `N[C@H](CCC[C@H](N)C(=O)O)C(=O)O` [diaminopimelic acid], the “DAPA aminotransferase specfic activity” value [1] was 0 nmol/min/mg.

With lys-gly the “DAPA aminotransferase specfic activity” value [1] was 0 nmol/min/mg.

In the case of `CC(N)C(=O)CCCCCC(=O)O` (stereo not shown) [KAPA, 8-amino-7-ketopelargonic acid], the “KAPA level above which enzyme was subject to inhibition” value ([2]; Eisenberg and Stoner 1971) is given as “above 20 μM”, the Km ([2]; read-out: Km for KAPA) is given as 1.2 µM and the Km ([3]; read-out: apparent Km for KAPA) is given as 1 to 5 µM. The “KAPA concentration above which inhibition of activity was observed” value ([3]; lysine constant at 19 mM) was “above 80 μM”.

In the case of gly-lys, the “DAPA aminotransferase specfic activity” value [1] is reported as 0 nmol/min/mg.

With `NCCCC[C@@H](N)C(=O)O` [D-lysine] the “DAPA aminotransferase specfic activity” value [1] was 0.19 nmol/min/mg and the “function as amino donor with the B. subtilis enzyme” value (from here on “function as amino donor”) [1] was “function as amino donors”.

In the case of `CNCCCC[C@H](N)C(=O)O` [Nε-methyl-L-lysine], the “DAPA aminotransferase specfic activity” value [1] is reported as 0 nmol/min/mg.

In the case of `NCCCCC(N)C(=O)O` (racemic) [DL-lysine (>98%), DL-lysine], the “DAPA aminotransferase specfic activity” value [1] is reported as 0.35 nmol/min/mg.

In the case of `C[S+](CC[C@H](N)C(=O)O)C[C@H]1O[C@@H](n2cnc3c(N)ncnc32)[C@H](O)[C@@H]1O` (stereo partly shown) [SAM, S-adenosylmethionine], the Km ([2]; purified E. coli enzyme, read-out: Km for SAM) is given as 200 µM, the “dependence of enzyme activity on presence of SAM” value (shortened to “dependence of enzyme activity”) [4] is given as “dependent on the presence of exogenous SAM” and the “dependence of enzyme activity” value [5] is given as “not dependent on the presence of SAM”. For the same compound, the “dependence of enzyme activity” value [6] was “dependent on the presence of exogenous SAM” and the “function as amino donor” value [1] was “not a significant amino donor”.

For `NCCCC[C@H](N)C(=O)O` [L-lysine], the Km ([3]; read-out: apparent Km for lysine) was 2000 to 25000 µM, the “DAPA aminotransferase specfic activity” value ([1]; listed as L-lysine (>98%)) was 0.76 nmol/min/mg and the “DAPA aminotransferase specfic activity” value ([1]; listed as L-lysine (>99%)) was 0.56 nmol/min/mg. The “function as amino donor” value [1] was “function as amino donors”, the “stimulation of DAPA aminotransferase activity” value (“stimulation” for short) ([1]; listed as L-lysine hydrochloride) was “stimulated DAPA aminotransferase activity” and the “stimulation” value ([1]; listed as L-lysine(>99% pure)) was “stimulate activity”.

For `CC(=O)NCCCC[C@H](N)C(=O)O` [Nε-acetyl-L-lysine], the “DAPA aminotransferase specfic activity” value [1] was 0 nmol/min/mg.

With (S)-2-aminoethyl-L-cysteine the inhibition of growth [7] was “inhibited growth”, the “DAPA aminotransferase specfic activity” value [1] was 0.48 nmol/min/mg and the “function as amino donor” value [1] was “function as amino donors”. For the same compound, the “stimulation” value [1] was “stimulate activity”.
